# Test results taken from patent publication US20100063139A1, “USE IN A COSMETIC COMPOSITION OF LIPOCHROMAN-6 TO ENHANCE THE RADIANCE OF THE COMPLEXION OF THE SKIN, ESPECIALLY THE SKIN OF THE FACE” (LVMH RECHERCHE, priority 2008, published 2010).
# Where “and” joins values, the source holds several entries; their conditions need not be identical. Equal values may be shown once.
# Experiments:
# Assay type in all cases: cell-based
# gene MsrB (msrb) = assay: Quantitative RT-PCR (RT-Q-PCR) of msrb gene expression in normal human epidermal keratinocytes; settings: 24 h, NHK; for % Control (msrb/G3PDH): control = 100; for Mb Cycles (msrb): triplicate PCR cycle numbers
# Description: (§1) The effect of lipochroman-6 on the basal expression of genes coding for the proteins MsrA and MsrB is evaluated by the method of quantitative RT-PCR (real-time PCR; RT-Q-PCR).
# (§2) The model selected is that of normal human epidermal keratinocytes (NHK) cultivated in vitro.
# (§3) Type: normal human epidermal keratinocytes (NHK)
# (§4) Test medium: SFM medium without EGF and without PE (SFM-PE-EGF)
# (§5) Lipochroman-6: stock solution at 10 mg/ml in ethanol, diluted in test medium at concentrations of 0.01 mg/ml and 0.005 mg/ml.
# (§6) The keratinocytes are seeded and pre-cultured for 24 hours in complete SFM culture medium (24-well plates) and then placed in SFM-PE-EGF medium.
# (§7) At confluence, the cells are treated or not (control) with the test product and are cultured for 24 h at 37° C. and 5% CO2. Each treatment is carried out in triplicate. The culture supernatants are then harvested and the cell layers are rinsed with PBS solution (Invitrogen), and then 300 μl of tri-reagent (Sigma) are added. The plates are subsequently frozen at −80° C.
# (§8) The expression of the genes msra and msrb is evaluated by RT-Q-PCR on the basis of the messenger RNA (mRNA) extracted from the cell layers of each treatment. For each treatment, the three samples are combined into one prior to the extraction of the RNA.
# (§9) The main steps of the protocol are as follows: • Extraction of the total RNA using tri-reagent, according to the protocol of the supplier. • Removal of traces of potentially contaminating DNA by treatment with the DNA-free system (Ambion). • Implementation of the reverse transcription reaction in the presence of the primer oligo(dT) and the enzyme Superscript II (Gibco).
# (§10) The PCR reactions are carried out with the aid of the following primers: […]
# (§11) The PCR (polymerase chain reaction) reactions are carried out by quantitative PCR with the Light Cycler system (Roche Molecular Systems Inc.) according to the procedures recommended by the supplier. To perform correctly, this analytical system requires prior development of the conditions of analysis of the different primers. This system is formed of two main components: an optimized thermocycler, which allows extremely rapid heat transfers, and a fluorimeter, which continuously measures the fluorescence intensity incorporated in the DNA (detection at 521 nm). The reaction mixture (10 μl final) for each sample is as follows: • 2.5 μl of cDNA diluted to 1/10th • primers of the different markers used • reaction mixture (Roche) containing the enzyme taq DNA polymerase, the marker SYBR Green I (a fluorophore which is integrated into the double-stranded DNA in the course of the elongation step) and MgCl2.
# (§12) The incorporation of fluorescence into the amplified DNA is measured continuously during the PCR cycles. […] The number of cycles is determined on the basis of the “exit” points of the fluorescence curves. For a given marker analysed, the later the exit of a sample (high number of cycles) the lower the initial number of copies of the mRNA. The relative expression (RE) value is expressed in arbitrary units (AU) in accordance with the following formula: (½^number of cycles)×10^6.
# gene MsrA (msra) = assay: Quantitative RT-PCR (RT-Q-PCR) of msra gene expression in normal human epidermal keratinocytes; settings: 24 h, NHK; for % Control (msra/G3PDH): control = 100; for Mb Cycles (msra): triplicate PCR cycle numbers
# Description: as §1, §2, §3, §4, §5, §6, §7, §8, §9, §10, §11, §12
# [1] = test system: methionine sulphoxide reductase (Msr); assay: Msr activity in protein extracts of treated human keratinocytes (N-acetyl-(3H)-methionine-R,S sulphoxide substrate); settings: dose of 0.05%; human keratinocytes in culture, 24 h treatment
# Description: The keratinocytes are obtained from grafts of skin originating from abdomens of healthy donors aged 47 years.
# Lipochroman-6 powder (supplier: Lipotec) is first diluted in 20 μl of absolute ethanol. Then a stock solution at 10 mg/ml in the K-SFM-S medium is prepared.
# An intermediate solution at 1 mg/ml (dilution 20 μl in 200 μl of K-SFM-S medium) is prepared from the lipochroman-6 stock solution.
# The dilutions are carried out in the K-SFM-S medium on the basis of the intermediate solution at 1 mg/ml.
# The medium is drawn off from the cell flasks (passage P3) and replaced with the medium containing the different dilutions of actives. After 24 hours of treatment, the cells are washed with PBS buffer and then treated with trypsin. The cells are finally counted with a NucleoCounter from Chemometec (Bioblock). […]
# The Msr activity is measured on the basis of the protein extracts by using the substrate N-acetyl-(^3H)-methionine-(R, S) sulphoxide in a reaction mixture of 30 μl containing Tris-HCl pH 7.5, 25 mM, MgCl2 10 mM, DTT 15 mM, at 37° C. […]
# The required quantity of proteins is withdrawn and made up with water to a reaction volume of 20.8 μl in a 2 ml Eppendorf tube stored in ice. […]
# Following centrifugation at 15 000 g for 5 minutes at ambient temperature, 1 ml of the upper, organic phase is withdrawn and is counted in a scintillation vial and admixed with 2 ml of Sigma Fluor scintillant. […]
# [2] = test system: normal human keratinocytes (NHK); assay: Immunostaining (DNPH/anti-DNP) of oxidized proteins in normal human keratinocytes, confocal image analysis; settings: for DNP marking/No. of cells / DNP marking/surface area measured / Surface area DNP marking: 48 h; for Proportion of oxidized proteins/cells, KHN 0002: donor KHN 0002; for Proportion of oxidized proteins/cells, KHN 9726: donor KHN 9726; for Proportion of oxidized proteins/cells, Mean: mean of two donors
# Description: Normal human keratinocytes (NHK) isolated from harvesting of human skin carried out on two different donors (labelled KHN002 and KHN 9726 hereinafter) are cultured in T75 flasks in complete KSFM medium (KSFMc) (Invitrogen GIBCO) at 37° C. and 5% CO2 and are seeded at 20 000 cells per well in 8-well Lab-Tek II culture systems (Nalge Nunc International).
# After 48 h of culture, the cells are treated with the treatment solutions (see below).
# A 0.004% weight/volume lipochroman-6 solution is prepared (solution A).
# This is done by dissolving 20 mg of lipochroman-6 powder (supplier: Lipotec) in 2 ml of ethanol (solution at 10 mg/ml). This solution is diluted (40 μl of the stock solution in 10 ml of KSFm medium) to give solution A.
# The treatment solutions are prepared by diluting solution A prepared above in the KSFMc medium, to give the correct percentage of lipochroman-6.
# Treatments carried out on 3 wells per cell type: • control: KSFMc • solvent control: 0.1% solution of ethanol in KSFMc medium • 0.001% lipochroman • 0.002% lipochroman
# After 48 hours of treatment, the KSFMc is drawn off. The cells are rinsed with phosphate buffer (PBS) (PBS tablets, Invitrogen GIBCO), then fixed with formalin (formalin solution 10% neutral buffered, Sigma) for 10 minutes at ambient temperature. After rinsing with PBS, the culture chambers are filled with 0.1% triton solution (Triton X-100, Sigma) for 10 minutes, then rinsed with PBS.
# The subsequently disassembled culture chambers and the slides are immersed in a solution of 2,4-dinitrophenylhydrazine (300 mg of DNPH (Fluka)) in an ethanol/sulphuric acid (98.5 ml/1.5 ml) mixture for 30 minutes.
# The dinitrophenyl (DNP) groups fixed to the oxidized proteins are recognized by a primary anti-DNP antibody.
# For this purpose, in a first step, the slides are covered with a solution of primary antibody (monoclonal mouse anti-DNP antibody, Sigma), diluted to 1/500th in a 1% BSA/PBS solution, and are incubated for 60 minutes in an oven at ambient temperature and then rinsed with a 0.1% Tween-PBS solution (Tween20, Merck). In a second step, the cells are covered with a secondary antibody solution (Alexafluor 546 goat anti-mouse, Invitrogen) in a 1% BSA/PBS solution, and are incubated away from the light for 60 minutes. The slides are subsequently rinsed with PBS-Tween and then with PBS.
# The photographs are made by confocal microscopy (Axioplan microscope from Zeiss and krypton-argon laser from BioRad) with the aid of the LaserSharp 2000 software (BioRad). For each condition, three photographs are made with the ×40 lens, according to the same acquisition parameters (gain, iris).
# In practice, an excitation fluorescence at 546 nm is applied by the confocal laser to the cells. The fluorochrome Alexafluor 546, which represents the oxidized proteins, emits fluorescence at 573 nm, which is recovered by a specific filter and can be observed. The measured fluorescence is therefore directly proportional to the amount of oxidized proteins.
# The photographs are analysed with the aid of the Leica QWin image analysis software. A program allows the DNPH staining to be quantified in order to evaluate the level of oxidized proteins and the number of cells.
# The program detects the fluorescent staining of the oxidized proteins. A detection zone which is as representative as possible (number, size, cell density, intensity of marking) is delimited. The fluorescence of the oxidized proteins is measured in the delimited zone, and the cells in the same zone are numbered by counting of the cell nuclei (see FIGS. 2a, 2b, 2c, 2d and 2e).
# The effect of lipochroman-6 on the oxidation of proteins is measured on the two types of normal human keratinocytes (NHK). This is done by estimating the surface area of staining of the oxidized proteins, the surface area of the measurement zone and the number of cells in the measurement surface area, using an image processing system.
smiles,measurement,setting,value
COc1cc2c(cc1O)CCC(C)(C)O2 [Lipochroman-6],Mb/G3PDH (msrb/G3PDH),gene MsrB (msrb); 0.005 mg/ml,1.76 × 10^−2
same,RE*Mb (AU) (msrb relative expression),gene MsrB (msrb); 0.005 mg/ml,3.516 × 10^−2 AU
same,% Control (msrb/G3PDH),gene MsrB (msrb); 0.005 mg/ml,127%
same,Mb Cycles (msrb),gene MsrB (msrb); 0.005 mg/ml,24.68 and 24.86 and 24.75
same,Mb/G3PDH (msrb/G3PDH),gene MsrB (msrb); 0.01 mg/ml,2.05 × 10^−2
same,RE*Mb (AU) (msrb relative expression),gene MsrB (msrb); 0.01 mg/ml,4.018 × 10^−2 AU
same,% Control (msrb/G3PDH),gene MsrB (msrb); 0.01 mg/ml,148%
same,Mb Cycles (msrb),gene MsrB (msrb); 0.01 mg/ml,24.62 and 24.60 and 24.49
same,Mb/G3PDH (msra/G3PDH),gene MsrA (msra); 0.005 mg/ml,4.14 × 10^−3
same,RE*Mb (AU) (msra relative expression),gene MsrA (msra); 0.005 mg/ml,8.251 × 10^−3 AU
same,% Control (msra/G3PDH),gene MsrA (msra); 0.005 mg/ml,116%
same,Mb Cycles (msra),gene MsrA (msra); 0.005 mg/ml,26.84 and 26.91 and 26.81
same,Mb/G3PDH (msra/G3PDH),gene MsrA (msra); 0.01 mg/ml,4.42 × 10^−3
same,RE*Mb (AU) (msra relative expression),gene MsrA (msra); 0.01 mg/ml,8.66 × 10^−3 AU
same,% Control (msra/G3PDH),gene MsrA (msra); 0.01 mg/ml,124%
same,Mb Cycles (msra),gene MsrA (msra); 0.01 mg/ml,26.83 and 26.79 and 26.73
same,Increase of Msr activity,[1],44%
same,DNP marking/No. of cells,[2]; 0.001% lipochroman,82.1 B
same,DNP marking/surface area measured,[2]; 0.001% lipochroman,28.7% D
same,Surface area DNP marking,[2]; 0.001% lipochroman,3776 C
same,"Proportion of oxidized proteins/cells, KHN 0002","[2]; 0.001% lipochroman-6, 48 h",76.3
same,"Proportion of oxidized proteins/cells, KHN 9726","[2]; 0.001% lipochroman-6, 48 h",88
same,"Proportion of oxidized proteins/cells, Mean","[2]; 0.001% lipochroman-6, 48 h",82.1
same,DNP marking/No. of cells,[2]; 0.002% lipochroman,52.0 A
same,DNP marking/surface area measured,[2]; 0.002% lipochroman,18.4% B
same,Surface area DNP marking,[2]; 0.002% lipochroman,2415 B
same,"Proportion of oxidized proteins/cells, KHN 0002","[2]; 0.002% lipochroman-6, 48 h",60.9
same,"Proportion of oxidized proteins/cells, KHN 9726","[2]; 0.002% lipochroman-6, 48 h",43
same,"Proportion of oxidized proteins/cells, Mean","[2]; 0.002% lipochroman-6, 48 h",52
